We go through ten molecules from patent US20230242526A1 (Zentaur Therapeutics International Limited, priority 2020, published 2023).

For data set [1], the system named is human breast squamous HCC1806 cell line. As to the kind of experiment: CyQUANT Direct cell proliferation assay, HCC1806. The format is cell-based. As to conditions: HCC1806, 168 h, 7 days. The source says: (§1) The human ovarian carcinoma OVCAR3 cell line (ATCC HTB-161™) or human breast squamous HCC1806 cell line (ATCC CRL 2335) were obtained from American Type Culture Collection (ATCC), and maintained in culture media according to the supplier's specification.
(§2) The CyQUANT® Direct Cell Proliferation Assay Kit (Invitrogen™, catalog No. G35012) was utilized to test the inhibitory activities of the CDK2 inhibitors described in this disclosure against OVCAR3 or HCC1806 tumor cells.
(§3) CyQUANT® Direct Cell Proliferation Assay: The spent medium from the purchased tumor cell culture plate was removed and the tumor cells were washed with PBS buffer twice. Trypsin (VWR catalog No. 0458-25G) was added to digest the tumor cells until tumor cells appeared round shaped and to dissociate adherent cells from the plate wall in which they are being cultured. Then RPMI-1640 media (HCC1806, Gibco™ catalog No, A10491-01) with 10% fetal bovine serum (FBS) (Hyclone™ catalog No. SV30160.03), or RPMI-1640 media (OVCAR-3, Gibco™ catalog No. 10370-021) with 20% FBS and 0.01 mg/mL insulin was added to stop the trypsin digestion reaction. The tumor cells were lightly agitated with a liquid transfer pipette to cause tumor cells suspended in the culture media. The cells were counted. The complete medium was used to prepare tumor cell suspension.
(§4) OVCAR3 or HCC1806 cells were seeded at 40 μL/well in 384-well plates in growth media containing FBS and cultured 24 hours in the incubator at 37° C., 5% CO2. […] Compound solutions were added by Agilent Bravo liquid handler. […] The control wells contained the growth medium having 0.1% DMSO. Cells were incubated at 37° C., 5% CO2 for 7 days.
(§5) CYQUANT Direct Cell Proliferation Assay (Molecular Probes, Eugene, Oreg.) was then performed following manufacturer's instructions to prepare the detection reagents. 50 μL of detection reagent was aliquot and added to each well and the cells were incubated at 37° C. for 1 hr.
(§6) The cell culture plates were placed on TECAN M1000 microplate reader to detect the fluorescence intensity at 508 nm excitation and 527 nm emission wavelengths. Graphpad Prism 6.0 software was used for data processing, preparing cell growth curve, calculating percentage inhibition on cell growth. IC50 values were calculated by concentration-response curve fitting utilizing a four-parameter analytical method using GraphPad Prism software.

Data set [2] concerns human ovarian carcinoma OVCAR3 cell line. As to the kind of experiment: CyQUANT Direct cell proliferation assay, OVCAR-3. The format is cell-based. As to conditions: OVCAR-3, 168 h, 7 days.
Text: as §1, §2, §3, §4, §5, §6

For another data set, the target named is CDK9/Cyclin T1 (Homo sapiens, UniProt P50750). As to the kind of experiment: CDK9/Cyclin T1 kinase assay. It is filed as biochemical. As to the method: (1). Recombinant enzymes CDK1, CDK2, CDK4, CDK6, CDK9, cyclin B1, cyclin A2, cyclin D3, cyclin E1, cyclin T1 were cloned and purified at Wuxi Biortus Biochemistry Co. Ltd.
Sequence of CDK9/Cyclin T1 (P50750 whole entry): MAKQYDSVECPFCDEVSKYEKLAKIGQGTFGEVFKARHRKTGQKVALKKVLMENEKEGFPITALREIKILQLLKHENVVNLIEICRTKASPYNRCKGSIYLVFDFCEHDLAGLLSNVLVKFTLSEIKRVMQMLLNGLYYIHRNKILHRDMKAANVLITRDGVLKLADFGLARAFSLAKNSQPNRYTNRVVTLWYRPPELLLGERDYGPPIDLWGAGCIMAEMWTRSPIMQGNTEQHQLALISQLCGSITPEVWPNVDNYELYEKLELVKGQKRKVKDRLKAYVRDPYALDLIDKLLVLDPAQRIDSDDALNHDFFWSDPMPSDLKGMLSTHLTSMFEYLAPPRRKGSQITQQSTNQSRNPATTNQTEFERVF
Sequence of CDK9/Cyclin T1 (O60563 whole entry partner): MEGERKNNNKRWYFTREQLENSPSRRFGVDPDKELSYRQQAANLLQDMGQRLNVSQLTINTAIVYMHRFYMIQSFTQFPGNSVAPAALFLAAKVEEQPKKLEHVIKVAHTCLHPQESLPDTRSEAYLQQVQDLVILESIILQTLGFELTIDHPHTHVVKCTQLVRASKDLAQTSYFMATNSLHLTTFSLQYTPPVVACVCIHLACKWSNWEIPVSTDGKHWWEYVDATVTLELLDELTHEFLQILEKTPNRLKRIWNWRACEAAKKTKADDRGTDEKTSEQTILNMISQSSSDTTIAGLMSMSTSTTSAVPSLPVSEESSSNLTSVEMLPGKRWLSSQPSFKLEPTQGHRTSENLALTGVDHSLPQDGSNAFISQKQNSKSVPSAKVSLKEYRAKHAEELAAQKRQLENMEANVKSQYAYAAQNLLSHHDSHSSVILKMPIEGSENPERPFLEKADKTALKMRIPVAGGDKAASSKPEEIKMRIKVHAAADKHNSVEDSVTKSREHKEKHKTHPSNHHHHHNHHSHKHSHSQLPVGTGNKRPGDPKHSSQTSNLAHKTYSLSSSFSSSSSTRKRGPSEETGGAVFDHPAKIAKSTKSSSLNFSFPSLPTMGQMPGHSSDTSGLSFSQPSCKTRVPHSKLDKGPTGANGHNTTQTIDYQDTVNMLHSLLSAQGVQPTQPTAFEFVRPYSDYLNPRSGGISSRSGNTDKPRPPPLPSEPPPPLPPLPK
(8) Peptide substrate-CDK9 (Ahx-GSRTPMY-NH2, Scilight-Peptide, Cat. C0769102).
The test compounds were dissolved and diluted in DMSO. A stock DMSO solution of the test compound of the invention was prepared by dissolving the compound in DMSO to form a 10 mM solution.
2 μL of testing compound solutions and 5 μL of enzyme solution were added into the 384-well microplate followed by a 10 minute incubation. The reaction was then initiated by the addition of 5 μL of peptide substrate and ATP mixture solution and incubated at 27° C. for 30 minutes. The enzyme reaction in each well was terminated by adding 4 μL of 120 mM EDTA solution. Each assay was carried out in duplicates.
DMSO was used as negative control (0%) for enzyme activity. 20 μM Staurosporine was used as positive control (100%) for enzyme activity.
Plates were read for fluorescence on a Caliper EZ Reader II by separating the fluorescent labeled substrate from the enzyme phosphorylation product by electrophoresis. Data were collected and analyzed using GraphPad Prism version 6.0 software.
Dose-response curves were plotted from inhibition data generated, each in duplicate, from 10 point serial dilutions of inhibitory compounds. Concentration of compound was plotted against % kinase activity. To generate IC50 values, the dose-response curves were then fitted to a standard sigmoidal curve and IC50 values were derived by nonlinear regression analysis.

The nature of data set [3]: in vitro. As to conditions: microsomes. The protocol: (§7) Human liver microsomes (cat. No. 452161), mouse liver microsomes (cat. No. 452701), were purchased from Corning.
(§8) Samples were analyzed using LC-MS/MS using a SCIEX API 4000 mass spectrometer coupled with Agilent HPLC analytical system. After separation on a ZORBAX XDB-C18 column (5 μm, 50×2.1 mm, column No. 50-282) using an acetonitrile-water gradient system, peaks were analyzed by mass spectroscopy (MS) using ESI ionization in Q1 and Q3 scan mode.
(§9) The LC and MS are all controlled by Analyst software.
(§10) The liver microsomes were incubated with 1.0 μM of the testing compound at 37° C. The incubation mixture contained 100 mM PBS buffer (pH=7.4), 3 mM MgCl2 and 1 mM NADPH. The concentration of liver microsome in the incubation mixture was 0.5 mg/mL for testing compound, and 0.2 mg/mL for MDZ and the total volume is 0.2 mL. […] Aliquots were withdrawn at time points of 0 min, 5 min and 20 min for MDZ. The reactions were terminated by transferring the aliquots to a methanol solution containing the internal standard […] for analytical quantification. The quenched samples were analyzed by LC-MS/MS. The incubations were carried out in duplicates. The metabolic stability of the testing compounds by the liver microsomes of human and mice is expressed as elimination half-life (t1/2). The results are shown as the means of duplicate determinations±SD.

Data set [4] in a line: in vitro. As to conditions: microsomes. The protocol:
as §7, §8, §9, §10
The source holds these as a separate data set.

Regarding `C[C@@]1(O)CCC[C@H]1n1c(=O)ccc2cnc(NC3CCN(S(C)(=O)=O)CC3)nc21` (racemic) [Comp. 1, (±)-8-(2-hydroxy-2-methylcyclopentyl)-2-((1-(methylsulfonyl)piperidin-4-yl)amino)pyrido[2,3-d]pyrimidin-7(8H)-one, reference compound], the results for the IC50 in data set [1] and in data set [2] were 86.5 nM and 54.3 nM, respectively.
The corresponding values for `Cc1cc2cnc(NC3CCN(S(C)(=O)=O)CC3)nc2n([C@@H]2CCC[C@@]2(C)O)c1=O` (racemic) [Comp. 3, (±)-8-(2-hydroxy-2-methylcyclopentyl)-6-methyl-2-((1-(methylsulfonyl)piperidin-4-yl)amino)pyrido[2,3-d]pyrimidin-7(8H)-one, reference compound] are 53.4 nM and 38.5 nM.
For `[2H]C([2H])([2H])c1cc2cnc(NC3CCN(S(C)(=O)=O)CC3)nc2n(C2CCCC2(C)O)c1=O` (racemic) [Comp. 11, (±)-8-(2-hydroxy-2-methylcyclopentyl)-6-(methyl-d3)-2-((1-(methylsulfonyl)piperidin-4-yl)amino)pyrido[2,3-d]pyrimidin-7(8H)-one] the same measures were 28.6 nM and 21.3 nM.
Take `[2H]C(F)(F)c1cc2cnc(NC3CCN(S(C)(=O)=O)CC3)nc2n(C2CCCC2(C)O)c1=O` (racemic) [Comp. 20, (±)-6-(difluoromethyl-d)-8-(2-hydroxy-2-methylcyclopentyl)-2-((1-(methylsulfonyl)piperidin-4-yl)amino)pyrido[2,3-d]pyrimidin-7(8H)-one]: the figures for the IC50 (against CDK9/Cyclin T1; in data set [1]; in data set [2]) were 6000 nM, 125 nM and 104 nM, respectively.
As for `C[C@@]1(O)CCC[C@H]1n1c(=O)ccc2cnc(NC3CCN(S(C)(=O)=O)CC3)nc21` [Comp. 6, (−)-8-(2-hydroxy-2-methylcyclopentyl)-2-((1-(methylsulfonyl)piperidin-4-yl)amino)pyrido[2,3-d]pyrimidin-7(8H)-one, reference compound], the IC50 (commonly the concentration needed to halve the response being measured) against CDK9/Cyclin T1 was 6450 nM; in data set [1], 56.1 nM; in data set [2], 39.2 nM. In addition, the half-life – broadly, how long it takes for the measured level to halve – at 1 μM stood at 693 min in the data set “in vitro [3]” (human, pH 7.4, t1/2 human) and 24.2 min in “in vitro [4]” (mouse, pH 7.4, t1/2 mouse).
For the molecule `[2H]C1(Nc2ncc3ccc(=O)n([C@@H]4CCC[C@@]4(C)O)c3n2)CCN(S(C)(=O)=O)CC1` [Comp. 47, (−)-8-((1R,2R)-2-hydroxy-2-methylcyclopentyl)-2-((1-(methylsulfonyl)piperidin-4-yl-4-d)amino)pyrido[2,3-d]pyrimidin-7(8H)-one], the half-life at 1 μM in “in vitro [3]” (human, pH 7.4, t1/2 human) was 990 min; in “in vitro [4]” (mouse, pH 7.4, t1/2 mouse), 24.5 min.
`[2H]C([2H])([2H])S(=O)(=O)N1CCC(Nc2ncc3ccc(=O)n([C@@H]4CCC[C@@]4(C)O)c3n2)CC1` [Comp. 55, (−)-8-((1R,2R)-2-hydroxy-2-methylcyclopentyl)-2-((1-((methyl-d3)sulfonyl)piperidin-4-yl)amino)pyrido[2,3-d]pyrimidin-7(8H)-one]: the half-life at 1 μM in the data set “in vitro [3]” (human, pH 7.4, t1/2 human) amounted to 346 min.
For the molecule `[2H]C1([2H])CN(S(C)(=O)=O)CC([2H])([2H])C1Nc1ncc2ccc(=O)n([C@@H]3CCC[C@@]3(C)O)c2n1` [Comp. 61, (−)-8-((1R,2R)-2-hydroxy-2-methylcyclopentyl)-2-((1-(methylsulfonyl)piperidin-4-yl-3,3,5,5-d4)amino)pyrido[2,3-d]pyrimidin-7(8H)-one], inhibition in data set [1] was half-maximal at 69.2 nM (IC50). The half-life at 1 μM in “in vitro [3]” (human, pH 7.4, t1/2 human) stood at 578 min; in “in vitro [4]” (mouse, pH 7.4, t1/2 mouse) it was 23.5 min.
For the molecule `CCN1CCN(Cc2ccc(Nc3ncc(F)c(-c4cc(F)c5nc(C)n(C(C)C)c5c4)n3)nc2)CC1` [LY2835219], the half-maximal inhibitory concentration (IC50) in data set [1] is 161 nM; in data set [2], 4370 nM.
As for `Cc1ncc2n1-c1ccc(Cl)cc1C(c1ccccc1F)=NC2` [Midazolam, reference compound], the half-life at 1 μM was found to be 16.3 min in the data set “in vitro [3]” (pH 7.4) and 4.59 min in the data set “in vitro [4]” (pH 7.4).
